In brackets after ≈: the same amount, converted by molar mass.
Tests used:
P. aeruginosa = assay: microbe, parasite or virus in culture; details: Pseudomonas aeruginosa, ATCC27853, read-out: MIC against P. aeruginosa (ATCC 27853), as stated for the pneumonia model
Outline: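 Broth microdilution in MHB, 2-fold 12-point series from 128 or 64 down to 0.06 or 0.03 μg mL^−1, 5 × 10^5 CFU mL^−1. Extra runs in CAMHB per CLSI and in MHB with 1% agarose; n ≥ 6.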

P. aeruginosa ATCC 27853 = assay: Murine pneumonia model, aerosolized treatment; assay type: in vivo, P. aeruginosa in CD1 mice; details: lung burden; Tobramycin 4.2mg/mL 20 min; group 9
Method: Peritonitis and UTI murine models were performed at the Department of Microbiology & Infection Control, Statens Serum Institute, Copenhagen, Denmark, under approval by the National Committee of Animal Ethics, Denmark, and adhered to the standards of EU Directive 2010/63/EU. The mouse pneumonia model was performed by Evotec Ltd, United Kingdom, under UK Home Office Licenses and with local ethical committee clearance. All animal studies were contracted by Adenium Biotech ApS.
Peptides were prepared in Ringer’s acetate pH 6.0 (vehicle) at 34 mg mL^−1. Comparator antibiotics included meropenem (Meronem®, AstraZeneca), polymyxin B sulfate (Sigma) and tobramycin (Novartis).
P. aeruginosa pneumonia in vivo model was prepared as follows: male CD1 mice were immunosuppressed with cyclophosphamide 200 mg kg^−1 on day −4 and 150 mg kg^−1 on day −1. […] Mouse weights were recorded once-daily following infection to ensure animals remained within ethical limits and to monitor efficacy of treatment. All mice remaining in the study at 34 h post infection were euthanized and the burden of P. aeruginosa in the lungs was determined. […] The lung homogenates were diluted appropriately then quantitatively cultured on to Pseudomonas-selective agar and incubated at 37 °C for 24 h before the number of colonies was counted. […]

## NC[C@H]1O[C@H](O[C@H]2[C@H](O)[C@@H](O[C@H]3O[C@H](CO)[C@@H](O)[C@H](N)[C@H]3O)[C@H](N)C[C@@H]2N)[C@H](N)C[C@@H]1O [tobramycin]
P. aeruginosa
  MIC: 0.5 to 2 µg/mL (≈ 1.07 to 4.28 µM)
P. aeruginosa ATCC 27853
  Log Group Geometric mean (CFU/g): 2.68 CFU/g
